Experiments:
[1] = test system: A549-ACE2 infected with SARS-CoV-2; experiment: SARS-CoV-2 infection rate relative to DMSO; higher = more infection; conditions: 24 h
A549-ACE2 [2] = experiment: phospholipidosis EC50; higher = less potent phospholipidosis inducer
[3] = test system: A549-ACE2 infected with SARS-CoV-2; experiment: morphology score (similarity to uninfected cells); higher = more like uninfected cells; conditions: 24 h
[4] = test system: A549-ACE2 infected with SARS-CoV-2; experiment: cell count relative to DMSO; higher = less toxic; conditions: 24 h
A549-ACE2 [5] = experiment: drug-induced phospholipidosis relative to tamoxifen; higher = more phospholipidosis
Vero E6 [6] = experiment: drug sensitivity score (DSS) for viability; higher = more toxic; extreme values may be limits of the assay; conditions: 72 h
Calu-3 [7] = experiment: as above; conditions: 72 h
U2OS [8] = experiment: as above; conditions: 72 h
Caco-2 [9] = experiment: as above; conditions: 72 h
HepG2 [10] = experiment: as above; conditions: 72 h
Vero E6 [11] = experiment: cell viability relative to DMSO; higher = less toxic; conditions: 72 h
Calu-3 [12] = experiment: as above; conditions: 72 h
U2OS [13] = experiment: as above; conditions: 72 h
Caco-2 [14] = experiment: as above; conditions: 72 h
HepG2 [15] = experiment: as above; conditions: 72 h
Calu-3 [16] = experiment: relative viability EC50 (midpoint between 100% and the lowest measured viability); higher = less toxic; conditions: 72 h
U2OS [17] = experiment: as above; conditions: 72 h
HepG2 [18] = experiment: as above; conditions: 72 h
Vero E6 [19] = experiment: as above; conditions: 72 h

CCN(CC)CCCCN1c2ccccc2Oc2ccc(Cl)cc21 [10-DEBC]
Conditions | SARS-CoV-2 infection rate [%] | cell count [%] | cell viability [%] | morphology score | phospholipidosis EC50 [µM]
A549-ACE2 [2], 24 h | – | – | – | – | 3.06
A549-ACE2 [2], 48 h | – | – | – | – | 3.97
A549-ACE2 [2], 72 h | – | – | – | – | 4.34
Caco-2 [14], 1 nM | – | – | 93.2 | – | –
Caco-2 [14], 10 nM | – | – | 99.6 | – | –
Caco-2 [14], 100 nM | – | – | 100 | – | –
Caco-2 [14], 1000 nM | – | – | 102 | – | –
Caco-2 [14], 10000 nM | – | – | 66.1 | – | –
Calu-3 [12], 1 nM | – | – | 112 | – | –
Calu-3 [12], 10 nM | – | – | 105 | – | –
Calu-3 [12], 100 nM | – | – | 110 | – | –
Calu-3 [12], 1000 nM | – | – | 103 | – | –
Calu-3 [12], 10000 nM | – | – | 39 | – | –
HepG2 [15], 1 nM | – | – | 90.3 | – | –
HepG2 [15], 10 nM | – | – | 103 | – | –
HepG2 [15], 100 nM | – | – | 87.4 | – | –
HepG2 [15], 1000 nM | – | – | 88.7 | – | –
HepG2 [15], 10000 nM | – | – | 45.3 | – | –
U2OS [13], 1 nM | – | – | 100 | – | –
U2OS [13], 10 nM | – | – | 96.4 | – | –
U2OS [13], 100 nM | – | – | 94.7 | – | –
U2OS [13], 1000 nM | – | – | 93.3 | – | –
U2OS [13], 10000 nM | – | – | 80.1 | – | –
Vero E6 [11], 1 nM | – | – | 99.5 | – | –
Vero E6 [11], 10 nM | – | – | 97.4 | – | –
Vero E6 [11], 100 nM | – | – | 93.7 | – | –
Vero E6 [11], 1000 nM | – | – | 92.6 | – | –
Vero E6 [11], 10000 nM | – | – | 63 | – | –
[1], 0.1 µM | 109 | – | – | – | –
[1], 0.3 µM | 87 | – | – | – | –
[1], 1 µM | 76 | – | – | – | –
[1], 3 µM | 55 | – | – | – | –
[3], 0.1 µM | – | – | – | -0.05 | –
[3], 0.3 µM | – | – | – | 0.39 | –
[3], 1 µM | – | – | – | 0.55 | –
[3], 3 µM | – | – | – | 0.9 | –
[4], 0.1 µM | – | 107 | – | – | –
[4], 0.3 µM | – | 103 | – | – | –
[4], 1 µM | – | 107 | – | – | –
[4], 3 µM | – | 127 | – | – | –

drug-induced phospholipidosis [%], A549-ACE2 [5]
Conditions | 0.3 µM | 0.833333 µM | 3.33333 µM | 6.66667 µM | 10 µM
24 h | 0.51 | 1.58 | 47.7 | 76.9 | 81.2
48 h | 1.97 | 2.56 | 41 | 88.5 | 101
72 h | 2.46 | 1.09 | 30.1 | 85.5 | 98.7

Conditions | drug sensitivity score | relative viability EC50 [µM]
Caco-2 [9] | 1.4 | –
Calu-3 [7] | 3.1 | –
Calu-3 [16] | – | 3.43
HepG2 [10] | 4.7 | –
HepG2 [18] | – | 1.76
U2OS [8] | 0.8 | –
U2OS [17] | – | > 10
Vero E6 [6] | 3 | –

O=[N+]([O-])c1ccccc1S(=O)(=O)NCC1CCC(CNC[C@H]2CCc3ccccc3C2)CC1 (some centres not stated) [NTNCB]
Conditions | SARS-CoV-2 infection rate [%] | cell count [%] | cell viability [%] | morphology score | phospholipidosis EC50 [µM]
A549-ACE2 [2], 24 h | – | – | – | – | 1.46
A549-ACE2 [2], 48 h | – | – | – | – | 3.21
A549-ACE2 [2], 72 h | – | – | – | – | 5.01
Caco-2 [14], 1 nM | – | – | 93.7 | – | –
Caco-2 [14], 10 nM | – | – | 95.2 | – | –
Caco-2 [14], 100 nM | – | – | 98.8 | – | –
Caco-2 [14], 1000 nM | – | – | 86.6 | – | –
Caco-2 [14], 10000 nM | – | – | 64.8 | – | –
Calu-3 [12], 1 nM | – | – | 104 | – | –
Calu-3 [12], 10 nM | – | – | 103 | – | –
Calu-3 [12], 100 nM | – | – | 96.6 | – | –
Calu-3 [12], 1000 nM | – | – | 105 | – | –
Calu-3 [12], 10000 nM | – | – | 15 | – | –
HepG2 [15], 1 nM | – | – | 99.1 | – | –
HepG2 [15], 10 nM | – | – | 96.6 | – | –
HepG2 [15], 100 nM | – | – | 91 | – | –
HepG2 [15], 1000 nM | – | – | 101 | – | –
HepG2 [15], 10000 nM | – | – | 57.1 | – | –
U2OS [13], 1 nM | – | – | 96.2 | – | –
U2OS [13], 10 nM | – | – | 93 | – | –
U2OS [13], 100 nM | – | – | 99.6 | – | –
U2OS [13], 1000 nM | – | – | 94.9 | – | –
U2OS [13], 10000 nM | – | – | 72.5 | – | –
Vero E6 [11], 1 nM | – | – | 94.9 | – | –
Vero E6 [11], 10 nM | – | – | 95.3 | – | –
Vero E6 [11], 100 nM | – | – | 89.8 | – | –
Vero E6 [11], 1000 nM | – | – | 94.5 | – | –
Vero E6 [11], 10000 nM | – | – | 79.2 | – | –
[1], 0.1 µM | 90 | – | – | – | –
[1], 0.3 µM | 102 | – | – | – | –
[1], 1 µM | 84 | – | – | – | –
[1], 3 µM | 36 | – | – | – | –
[3], 0.1 µM | – | – | – | 0.29 | –
[3], 0.3 µM | – | – | – | -0.23 | –
[3], 1 µM | – | – | – | 0.28 | –
[3], 3 µM | – | – | – | 0.73 | –
[4], 0.1 µM | – | 101 | – | – | –
[4], 0.3 µM | – | 99 | – | – | –
[4], 1 µM | – | 103 | – | – | –
[4], 3 µM | – | 119 | – | – | –

drug-induced phospholipidosis [%], A549-ACE2 [5]
Conditions | 0.3 µM | 0.833333 µM | 3.33333 µM | 6.66667 µM | 10 µM | 30 µM
24 h | 2.25 | 13.4 | 66.1 | 101 | 91.2 | 45.6
48 h | 4.73 | 11.2 | 54.3 | 93.7 | 117 | 42.7
72 h | 6.41 | 10.5 | 45.9 | 102 | 126 | –

Conditions | drug sensitivity score | relative viability EC50 [µM]
Caco-2 [9] | 3.3 | –
Calu-3 [7] | 4.3 | –
Calu-3 [16] | – | 3.49
HepG2 [10] | 2.1 | –
U2OS [8] | 1.9 | –
Vero E6 [6] | 0.9 | –
Vero E6 [19] | – | > 10
